Key:
Test in all cases: relative viability (nuclei count vs DMSO), 5 days (fraction); higher = more cells survive
Sunitinib + Trametinib = compound: CCN(CC)CCNC(=O)c1c(C)[nH]c(/C=C2\C(=O)Nc3ccc(F)cc32)c1C [Sunitinib] + CC(=O)Nc1cccc(-n2c(=O)n(C3CC3)c(=O)c3c(Nc4ccc(I)cc4F)n(C)c(=O)c(C)c32)c1 [Trametinib] (partner 0.02 µM)
Method in brief: (§1)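 Lung cancer cell lines, seeded in 1536-well plates, were treated the following day by pin tool with a single drug or with five library-drug doses (not always all listed) in √10 steps on top of a fixed anchor-drug dose. Cells were fixed and nuclei stained in one step after 5 days, and nuclei were counted. Relative viability is the nuclei count for treated wells divided by that for vehicle wells, reported as medians of duplicate plates.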

Sunitinib + Olaparib = compound: CCN(CC)CCNC(=O)c1c(C)[nH]c(/C=C2\C(=O)Nc3ccc(F)cc32)c1C [Sunitinib] + O=C(c1cc(Cc2n[nH]c(=O)c3ccccc23)ccc1F)N1CCN(C(=O)C2CC2)CC1 [Olaparib] (partner 8 µM)
Method in brief: as §1

Sunitinib + Bortezomib = compound: CCN(CC)CCNC(=O)c1c(C)[nH]c(/C=C2\C(=O)Nc3ccc(F)cc32)c1C [Sunitinib] + CC(C)C[C@H](NC(=O)[C@H](Cc1ccccc1)NC(=O)c1cnccn1)B(O)O [Bortezomib] (partner 0.002 µM)
Method in brief: as §1

Sunitinib + Pictilisib = compound: CCN(CC)CCNC(=O)c1c(C)[nH]c(/C=C2\C(=O)Nc3ccc(F)cc32)c1C [Sunitinib] + CS(=O)(=O)N1CCN(Cc2cc3nc(-c4cccc5[nH]ncc45)nc(N4CCOCC4)c3s2)CC1 [Pictilisib] (partner 1 µM)
Method in brief: as §1

| Cell Line | relative viability (Sunitinib + Trametinib; first compound 0.06325 µM) | relative viability (Sunitinib + Trametinib; first compound 0.2 µM) | relative viability (Sunitinib + Trametinib; first compound 0.6325 µM) | relative viability (Sunitinib + Trametinib; first compound 2 µM) | relative viability (Sunitinib + Olaparib; first compound 0.02 µM) | relative viability (Sunitinib + Olaparib; first compound 0.06325 µM) | relative viability (Sunitinib + Olaparib; first compound 0.2 µM) | relative viability (Sunitinib + Olaparib; first compound 0.6325 µM) | relative viability (Sunitinib + Olaparib; first compound 2 µM) | relative viability (Sunitinib + Bortezomib; first compound 0.02 µM) | relative viability (Sunitinib + Bortezomib; first compound 0.06325 µM) | relative viability (Sunitinib + Bortezomib; first compound 0.2 µM) | relative viability (Sunitinib + Bortezomib; first compound 2 µM) | relative viability (Sunitinib + Pictilisib; first compound 0.02 µM) | relative viability (Sunitinib + Pictilisib; first compound 0.06325 µM) | relative viability (Sunitinib + Pictilisib; first compound 0.2 µM) | relative viability (Sunitinib + Pictilisib; first compound 2 µM) | relative viability (Sunitinib + Trametinib; first compound 0.02 µM) | relative viability (Sunitinib + Pictilisib; first compound 0.6325 µM) | relative viability (Sunitinib + Bortezomib; first compound 0.6325 µM) |
| --- | --- | --- | --- | --- | --- | --- | --- | --- | --- | --- | --- | --- | --- | --- | --- | --- | --- | --- | --- | --- |
| NCI-H522 | 0.672 | 0.667 | 0.783 | 0.794 | 0.623 | 0.574 | 0.75 | 0.616 | 0.641 | – | – | – | – | – | – | – | – | – | – | – |
| NCI-H1299 | – | – | – | – | 0.935 | 0.977 | 0.998 | 1.02 | 0.991 | 0.999 | 1.06 | 1.01 | 1 | 0.748 | 0.654 | 0.862 | 0.558 | – | – | – |
| NCI-H1395 | – | 1.22 | 0.988 | 0.99 | 0.441 | 0.438 | 0.478 | 0.484 | 0.482 | – | – | – | – | 0.609 | 0.646 | 0.662 | 0.594 | 0.92 | 0.614 | – |
| NCI-H1563 | – | – | – | – | – | – | – | – | – | 0.752 | 0.918 | 0.897 | 0.771 | 0.637 | 0.641 | 0.695 | 0.643 | – | 0.653 | 0.906 |
| NCI-H1648 | 0.529 | 0.524 | 0.445 | 0.499 | 1.11 | 0.583 | – | 0.751 | 0.707 | – | – | – | – | – | – | – | – | 0.502 | – | – |
| NCI-H1703 | – | – | – | – | 0.229 | 0.267 | 0.251 | 0.154 | 0.157 | 0.249 | 0.218 | 0.176 | 0.176 | 0.215 | 0.208 | 0.245 | 0.204 | – | 0.224 | 0.19 |
| NCI-H1793 | 0.364 | 0.377 | 0.514 | 0.331 | – | 0.726 | 1.03 | 1 | 0.706 | – | – | – | – | – | 0.296 | 0.361 | 0.297 | – | 0.241 | – |
| NCI-H1944 | 0.423 | 0.457 | 0.437 | 0.43 | 0.39 | 0.414 | 0.473 | 0.43 | 0.447 | – | – | – | – | 0.315 | 0.379 | 0.412 | 0.374 | 0.401 | 0.337 | – |
| NCI-H2170 | 0.915 | 1.05 | 0.927 | 0.921 | 0.593 | 0.571 | 0.651 | 0.605 | 0.535 | – | – | – | – | 0.307 | 0.311 | 0.311 | 0.236 | 0.905 | 0.303 | – |
| NCI-H2342 | 0.877 | 0.915 | 0.767 | 0.813 | 0.48 | 0.456 | 0.527 | 0.475 | 0.414 | – | – | – | – | – | – | – | – | 0.786 | – | – |
| SK-MES-1 | 0.528 | 0.555 | 0.575 | 0.459 | 0.643 | 0.7 | 0.877 | – | 0.678 | – | – | – | – | 0.352 | 0.382 | 0.344 | 0.359 | 0.526 | 0.316 | – |
| SW 900 | 0.715 | 0.941 | 0.795 | 0.766 | 0.794 | 1.04 | 0.847 | 1.1 | 0.945 | – | – | – | – | – | – | – | – | 0.718 | – | – |

— the supplement of paper PMC10307832
